Data set [1] can be described thus: Caco-2 Permeability Assay. Particulars: human, Caco-2, test compound 3 μM. The class given is in vitro ADME. An outline of the steps:
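Bidirectional permeability measured over 2 h at 37° C, compound dosed at 3 μM in the donor compartment (apical for absorptive, basolateral for secretive) with plain buffer as receiver.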
For orientation: Passage across Caco-2 layers is used to estimate intestinal permeability.

Data set [2] has as its system Human whole blood stimulated with a TLR2 agonist (lipoteichoic acid), IL-6 levels. Description: IRAK4 Whole Blood Assay. It counts as cell-based. The following applies: Homo sapiens, lipoteichoic acid 10 μg/mL. In a few lines: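 IL-6 was quantified by cytometric bead assay in supernatants of human blood (ACD-A) stimulated for 5 h with lipoteichoic acid at 10 μg/mL final. Compound exposure preceded stimulation for 60 min at 37 °C, 5% CO2.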

The next data set has as its target IRAK4 (Homo sapiens (Human), UniProt Q9NWZ3). Description: IRAK4 Inhibition Assay. It counts as biochemical. Particulars: ATP 500 μM; IRAK4 0.6 nM. An outline of the steps:
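Mobility-shift kinase assay: 0.6 nM IRAK4, 500 μM ATP, 1.5 μM fluorescent peptide, 60 min, room temperature. Percent inhibition was normalised between enzyme-free and DMSO-only wells.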

Bounds are passed on as bounds.

Sequence of IRAK4 (Q9NWZ3 whole entry, species assumed): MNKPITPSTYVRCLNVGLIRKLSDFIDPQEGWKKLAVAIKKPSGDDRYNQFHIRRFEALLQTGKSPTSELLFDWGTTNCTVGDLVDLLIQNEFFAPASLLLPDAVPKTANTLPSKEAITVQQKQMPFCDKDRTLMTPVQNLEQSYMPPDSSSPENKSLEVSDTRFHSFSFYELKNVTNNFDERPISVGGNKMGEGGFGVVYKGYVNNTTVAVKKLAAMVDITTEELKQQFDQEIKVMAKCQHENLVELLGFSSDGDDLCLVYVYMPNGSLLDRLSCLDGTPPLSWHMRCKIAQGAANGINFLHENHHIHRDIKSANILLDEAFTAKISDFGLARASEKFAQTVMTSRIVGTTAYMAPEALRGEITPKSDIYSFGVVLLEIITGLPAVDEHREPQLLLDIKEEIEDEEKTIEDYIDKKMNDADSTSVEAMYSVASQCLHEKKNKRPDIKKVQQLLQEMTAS

Take `CC(C)Nc1cc(-n2ncc3cc(C#N)cnc32)ncc1-n1cc(CCC(C)(C)O)cn1` [Example 390, 1-(5-(4-(3-hydroxy-3-methylbutyl)-1H-pyrazol-1-yl)-4-(isopropylamino)pyridin-2-yl)-1H-pyrazolo[3,4-b]pyridine-5-carbonitrile]: the Papp (commonly a coefficient for how fast a substance crosses the barrier) at 2 h, 3 µM in data set [1] turned out to be 371 nm/s. Moreover, the EC50 (commonly the concentration giving half of the maximal effect) in data set [2] worked out at 0.27 µM. The concentration for half-maximal inhibition (IC50) – broadly, the midpoint of a concentration-inhibition curve – at IRAK4 worked out at 0.008 µM.

For the molecule `CC(C)Nc1cc(-n2ncc3cc(C#N)cnc32)ncc1-c1cn([C@H]2CC[C@H](N)CC2)nn1` [Example 392, 1-(5-(1-((1r,4r)-4-aminocyclohexyl)-1H-1,2,3-triazol-4-yl)-4-(isopropylamino)pyridin-2-yl)-1H-pyrazolo[3,4-b]pyridine-5-carbonitrile], the Papp at 2 h, 3 µM in data set [1] is < 15 nm/s. Moreover, the EC50 in data set [2] is 0.44 µM. The IC50 at IRAK4 is 0.003 µM.

Consider `COC(=O)N[C@H]1CC[C@H](n2cc(-c3cnc(-n4ncc5cc(C#N)cnc54)cc3NC(C)C)nn2)CC1` [Example 393, methyl ((1r,4r)-4-(4-(6-(5-cyano-1H-pyrazolo[3,4-b]pyridin-1-yl)-4-(isopropylamino)pyridin-3-yl)-1H-1,2,3-triazol-1-yl)cyclohexyl)carbamate], for which the Papp at 2 h, 3 µM in data set [1] came to 106 nm/s. For the same molecule, in data set [2], a half-maximal response (EC50) required 0.33 µM. Besides, the IC50 at IRAK4 was determined as 0.002 µM.

Take `CC(C)Nc1cc(-n2ncc3cc(C#N)cnc32)ncc1-c1cn([C@H]2CC[C@H](NCC(F)F)CC2)nn1` [Example 394, 1-(5-(1-((1r,4r)-4-((2,2-difluoroethyl)amino)cyclohexyl)-1H-1,2,3-triazol-4-yl)-4-(isopropylamino)pyridin-2-yl)-1H-pyrazolo[3,4-b]pyridine-5-carbonitrile]: the Papp at 2 h, 3 µM in data set [1] turned out to be 91 nm/s. The molecule further displayed an EC50 in data set [2] of 0.25 µM. Besides, the IC50 on IRAK4 stood at 0.002 µM.

In data set [1], `CCOC(=O)N[C@H]1CC[C@H](n2cc(-c3cnc(-n4ncc5cc(C#N)cnc54)cc3NC(C)C)nn2)CC1` [Example 395, ethyl ((1r,4r)-4-(4-(6-(5-cyano-1H-pyrazolo[3,4-b]pyridin-1-yl)-4-(isopropylamino)pyridin-3-yl)-1H-1,2,3-triazol-1-yl)cyclohexyl)carbamate] yielded a Papp at 2 h, 3 µM of 94 nm/s. Also, the EC50 in data set [2] was determined as 0.29 µM. For the same molecule, on IRAK4, the half-inhibitory concentration (IC50) is 0.001 µM.

For `CC(=O)N1CC(c2cc(-c3cnc(-n4ncc5cc(C#N)cnc54)cc3NC(C)C)on2)C1` [Example 398, 1-(5-(3-(1-acetylazetidin-3-yl)isoxazol-5-yl)-4-(isopropylamino)pyridin-2-yl)-1H-pyrazolo[3,4-b]pyridine-5-carbonitrile], the apparent permeability (Papp) at 2 h, 3 µM in data set [1] is 69 nm/s. For the same molecule, the midpoint of the response in data set [2], the EC50, lay at 0.3 µM. Besides, the IC50 at IRAK4 stood at 0.004 µM.

Consider `CC(C)Nc1cc(-n2ncc3cc(C#N)cnc32)ncc1-c1cc(C(CO)CO)no1` [Example 399, 1-(5-(3-(1,3-dihydroxypropan-2-yl)isoxazol-5-yl)-4-(isopropylamino)pyridin-2-yl)-1H-pyrazolo[3,4-b]pyridine-5-carbonitrile], for which the apparent permeability coefficient (Papp) at 2 h, 3 µM in data set [1] is < 15 nm/s. The molecule further had an EC50 in data set [2] of 0.14 µM. In addition, at IRAK4, the IC50 came to 0.01 µM.

`COC(=O)N1CC(c2cc(-c3cnc(-n4ncc5cc(C#N)cnc54)cc3NC(C)C)on2)C1` [Example 401, methyl 3-(5-(6-(5-cyano-1H-pyrazolo[3,4-b]pyridin-1-yl)-4-(isopropylamino)pyridin-3-yl)isoxazol-3-yl)azetidine-1-carboxylate] gave a Papp at 2 h, 3 µM in data set [1] of 280 nm/s. In data set [2], this molecule came in with a concentration giving a half-maximal response (EC50) of 0.38 µM. Further, the IC50 at IRAK4 was 0.004 µM.

Molecule `CC(=O)N1CCC(c2cc(-c3cnc(-n4ncc5cc(C#N)cnc54)cc3NC(C)C)on2)CC1` [Example 402, 1-(5-(3-(1-acetylpiperidin-4-yl)isoxazol-5-yl)-4-(isopropylamino)pyridin-2-yl)-1H-pyrazolo[3,4-b]pyridine-5-carbonitrile] displayed a Papp at 2 h, 3 µM in data set [1] of 192 nm/s. Further, in data set [2], the EC50 amounted to 0.25 µM. The IC50 at IRAK4 turned out to be 0.002 µM.

Take `CC(C)Nc1cc(-n2ncc3cc(C#N)cnc32)ncc1-c1cc(C2CCNCC2)no1` [Example 403, 1-(4-(isopropylamino)-5-(3-(piperidin-4-yl)isoxazol-5-yl)pyridin-2-yl)-1H-pyrazolo[3,4-b]pyridine-5-carbonitrile]: the Papp at 2 h, 3 µM in data set [1] was < 15 nm/s. For the same molecule, the concentration giving a half-maximal response (EC50) in data set [2] was 0.23 µM. For the same molecule, the IC50 at IRAK4 was determined as 0.004 µM.

Take `CC(C)Nc1cc(-n2ncc3cc(C#N)cnc32)ncc1-c1cc([C@H]2CCNC2)no1` [Example 404, (S)-1-(4-(isopropylamino)-5-(3-(pyrrolidin-3-yl)isoxazol-5-yl)pyridin-2-yl)-1H-pyrazolo[3,4-b]pyridine-5-carbonitrile]: in data set [1], the apparent permeability coefficient (Papp) at 2 h, 3 µM is < 15 nm/s. Also, the EC50 in data set [2] turned out to be 0.23 µM. The IC50 at IRAK4 was 0.003 µM.

In data set [1], `CC(=O)N1CC[C@H](c2cc(-c3cnc(-n4ncc5cc(C#N)cnc54)cc3NC(C)C)on2)C1` [Example 405, (S)-1-(5-(3-(1-acetylpyrrolidin-3-yl)isoxazol-5-yl)-4-(isopropylamino)pyridin-2-yl)-1H-pyrazolo[3,4-b]pyridine-5-carbonitrile] registered a Papp at 2 h, 3 µM of 125 nm/s. The same molecule came in with an EC50 in data set [2] of 0.26 µM. For the same molecule, the 50% inhibitory concentration (IC50) at IRAK4 came out at 0.004 µM.

As for `CC(=O)N1CC[C@@H](c2cc(-c3cnc(-n4ncc5cc(C#N)cnc54)cc3NC(C)C)on2)C1` [Example 406, (R)-1-(5-(3-(1-acetylpyrrolidin-3-yl)isoxazol-5-yl)-4-(isopropylamino)pyridin-2-yl)-1H-pyrazolo [3,4-b]pyridine-5-carbonitrile], the Papp at 2 h, 3 µM in data set [1] came to 163 nm/s. The molecule further had an EC50 in data set [2] of 0.47 µM. Also, at IRAK4, the half-inhibitory concentration (IC50) turned out to be 0.003 µM.

`CC(=O)N1CCC[C@@H](c2cc(-c3cnc(-n4ncc5cc(C#N)cnc54)cc3NC(C)C)on2)C1` [Example 407, (R)-1-(5-(3-(1-acetylpiperidin-3-yl)isoxazol-5-yl)-4-(isopropylamino)pyridin-2-yl)-1H-pyrazolo[3,4-b]pyridine-5-carbonitrile] came in with a Papp at 2 h, 3 µM in data set [1] of 250 nm/s. For the same molecule, in data set [2], the concentration for a half-maximal effect (EC50) amounted to 0.29 µM. Moreover, the IC50 on IRAK4 worked out at 0.001 µM.

For `CC(C)Nc1cc(-n2ncc3cc(C#N)cnc32)ncc1-c1cc(C2CCCCN2)no1` [Example 412, (S)-1-(4-(isopropylamino)-5-(3-(piperidin-2-yl)isoxazol-5-yl)pyridin-2-yl)-1H-pyrazolo[3,4-b]pyridine-5-carbonitrile], in data set [1], the Papp at 2 h, 3 µM was 139 nm/s. In addition, the response in data set [2] was half-maximal at 0.4 µM (EC50). In addition, the IC50 at IRAK4 was determined as 0.004 µM.

As to `CNCCCc1cc(-c2cnc(-n3ncc4cc(C#N)cnc43)cc2NC(C)C)on1` [Example 414, 1-(4-(isopropylamino)-5-(3-(3-(methylamino)propyl)isoxazol-5-yl)pyridin-2-yl)-1H-pyrazolo[3,4-b]pyridine-5-carbonitrile], in data set [1], the apparent permeability coefficient (Papp) at 2 h, 3 µM was < 15 nm/s. For the same molecule, in data set [2], the EC50 turned out to be 0.25 µM. Further, at IRAK4, the half-maximal inhibitory concentration (IC50) is 0.007 µM.

Regarding `CC(=O)N(C)CCCc1cc(-c2cnc(-n3ncc4cc(C#N)cnc43)cc2NC(C)C)on1` [Example 415, N-(3-(5-(6-(5-cyano-1H-pyrazolo[3,4-b]pyridin-1-yl)-4-(isopropylamino)pyridin-3-yl)isoxazol-3-yl)propyl)-N-methylacetamide], in data set [1], the Papp at 2 h, 3 µM is 183 nm/s. The molecule also had a concentration giving a half-maximal response (EC50) in data set [2] of 0.26 µM. In addition, the 50% inhibitory concentration (IC50) on IRAK4 is 0.003 µM.

In the case of `CC(=O)N1CCC[C@@H]1c1cc(-c2cnc(-n3ncc4cc(C#N)cnc43)cc2NC(C)C)on1` [Example 417, (R)-1-(5-(3-(1-acetylpyrrolidin-2-yl)isoxazol-5-yl)-4-(isopropylamino)pyridin-2-yl)-1H-pyrazolo [3,4-b]pyridine-5-carbonitrile], in data set [1], the Papp at 2 h, 3 µM turned out to be 292 nm/s. Further, the EC50 in data set [2] was found to be 0.34 µM. At IRAK4, the half-inhibitory concentration (IC50) turned out to be 0.007 µM.

Molecule `CC(=O)N1C2CCC1CC(c1cc(-c3cnc(-n4ncc5cc(C#N)cnc54)cc3NC(C)C)on1)C2` (stereo not drawn) [Example 419, 1-(5-(3-(8-acetyl-8-azabicyclo[3.2.1]octan-3-yl)isoxazol-5-yl)-4-(isopropylamino)pyridin-2-yl)-1H-pyrazolo[3,4-b]pyridine-5-carbonitrile] showed an apparent permeability (Papp) at 2 h, 3 µM in data set [1] of 199 nm/s. Moreover, the EC50 in data set [2] was found to be 0.43 µM. Moreover, at IRAK4, the half-inhibitory concentration (IC50) came out at 0.002 µM.

Molecule `CC(C)Nc1cc(-n2ncc3cc(C#N)cnc32)ncc1-c1cc([C@@H]2COC(C)(C)O2)no1` [Example 420, (R)-1-(5-(3-(2,2-dimethyl-1,3-dioxolan-4-yl)isoxazol-5-yl)-4-(isopropylamino)pyridin-2-yl)-1H-pyrazolo[3,4-b]pyridine-5-carbonitrile] had a Papp at 2 h, 3 µM in data set [1] of 438 nm/s. The molecule further returned a half-maximal effective concentration (EC50) in data set [2] of 0.35 µM. Moreover, at IRAK4, the IC50 came to 0.006 µM.

In data set [1], `CC(=O)N1CCC(F)(c2cc(-c3cnc(-n4ncc5cc(C#N)cnc54)cc3NC(C)C)on2)CC1` [Example 421, 1-(5-(3-(1-acetyl-4-fluoropiperidin-4-yl)isoxazol-5-yl)-4-(isopropylamino)pyridin-2-yl)-1H-pyrazolo[3,4-b]pyridine-5-carbonitrile] registered an apparent permeability coefficient (Papp) at 2 h, 3 µM of 322 nm/s. Also, it took 0.2 µM to reach a half-maximal effect in data set [2] (EC50). Also, at IRAK4, the IC50 is 0.003 µM.

Molecule `CC(C)Nc1cc(-n2ncc3cc(C#N)cnc32)ncc1-c1cc(C2CC(F)(F)CCN2)no1` (stereo not drawn) [Example 422, 1-(5-(3-(4,4-difluoropiperidin-2-yl)isoxazol-5-yl)-4-(isopropylamino)pyridin-2-yl)-1H-pyrazolo [3,4-b]pyridine-5-carbonitrile] displayed an apparent permeability coefficient (Papp) at 2 h, 3 µM in data set [1] of 317 nm/s. The molecule also came in with a concentration for a half-maximal effect (EC50) in data set [2] of 0.48 µM. Besides, the half-maximal inhibitory concentration (IC50) at IRAK4 was determined as 0.003 µM.
